Measurements: the supplement of paper PMC10307832

Legend:
Experiment in all cases: relative viability (nuclei count vs DMSO), 5 days (fraction); higher = more cells survive
Pemetrexed + Trametinib = compound: Nc1nc2[nH]cc(CCc3ccc(C(=O)N[C@@H](CCC(=O)O)C(=O)O)cc3)c2c(=O)[nH]1 [Pemetrexed] + CC(=O)Nc1cccc(-n2c(=O)n(C3CC3)c(=O)c3c(Nc4ccc(I)cc4F)n(C)c(=O)c(C)c32)c1 [Trametinib] (partner 0.02 µM)
Outline: (§1)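 For relative viability, nuclei counts in treated wells were divided by those in vehicle wells. Lung cancer cell lines had been pin-tool dosed in 1536-well plates the day after seeding and cultured for 5 days, then fixed and stained in one step (final 0.05% Triton X-100, 1% formaldehyde, 1 ug/ml Hoechst) and imaged at 4×. Doses were one drug alone or a fixed anchor-drug dose plus five library-drug doses (not always all listed) in √10 steps, and values are duplicate-plate medians.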

Idelalisib + Lapatinib = compound: CC[C@H](Nc1ncnc2[nH]cnc12)c1nc2cccc(F)c2c(=O)n1-c1ccccc1 [Idelalisib] + CS(=O)(=O)CCNCc1ccc(-c2ccc3ncnc(Nc4ccc(OCc5cccc(F)c5)c(Cl)c4)c3c2)o1 [Lapatinib] (partner 2 µM)
Outline: as §1

Idelalisib + Phenformin = compound: CC[C@H](Nc1ncnc2[nH]cnc12)c1nc2cccc(F)c2c(=O)n1-c1ccccc1 [Idelalisib] + N=C(N)NC(=N)NCCc1ccccc1 [Phenformin] (partner 250 µM)
Outline: as §1

Idelalisib + Trametinib = compound: CC[C@H](Nc1ncnc2[nH]cnc12)c1nc2cccc(F)c2c(=O)n1-c1ccccc1 [Idelalisib] + CC(=O)Nc1cccc(-n2c(=O)n(C3CC3)c(=O)c3c(Nc4ccc(I)cc4F)n(C)c(=O)c(C)c32)c1 [Trametinib] (partner 0.02 µM)
Outline: as §1

Question: What does the source list for UMC-11?
Answer: relative viability (Pemetrexed + Trametinib; first compound 0.002 µM): 0.659; relative viability (Pemetrexed + Trametinib; first compound 0.006325 µM): 0.663; relative viability (Pemetrexed + Trametinib; first compound 0.02 µM): 0.819; relative viability (Pemetrexed + Trametinib; first compound 0.06325 µM): 0.655; relative viability (Pemetrexed + Trametinib; first compound 0.2 µM): 0.619; relative viability (Idelalisib + Lapatinib; first compound 0.04 µM): 1; relative viability (Idelalisib + Lapatinib; first compound 0.1265 µM): 1.02; relative viability (Idelalisib + Lapatinib; first compound 0.4 µM): 0.985; relative viability (Idelalisib + Lapatinib; first compound 1.265 µM): 1.14; relative viability (Idelalisib + Lapatinib; first compound 4 µM): 0.976; relative viability (Idelalisib + Phenformin; first compound 0.04 µM): 0.323; relative viability (Idelalisib + Phenformin; first compound 0.1265 µM): 0.327; relative viability (Idelalisib + Phenformin; first compound 0.4 µM): 0.303; relative viability (Idelalisib + Phenformin; first compound 1.265 µM): 0.321; relative viability (Idelalisib + Phenformin; first compound 4 µM): 0.318; relative viability (Idelalisib + Trametinib; first compound 0.04 µM): 0.786; relative viability (Idelalisib + Trametinib; first compound 0.1265 µM): 0.651; relative viability (Idelalisib + Trametinib; first compound 0.4 µM): 0.629; relative viability (Idelalisib + Trametinib; first compound 1.265 µM): 0.764; relative viability (Idelalisib + Trametinib; first compound 4 µM): 0.72
